The test system of experiment [1] is Acinetobacter baumannii. Description: Activity of Acinetobacter baumannii AC-54/97 metallo-beta-lactamase IMP-2 expressed in Escherichia coli DH5alpha.
In experiment [2] the test system is Acinetobacter baumannii. Briefly: Ratio of Kcat to Km of Acinetobacter baumannii AC-54/97 metallo-beta-lactamase IMP-2 expressed in Escherichia coli DH5alpha.

One may read the Km as the substrate concentration at which the rate is half of its maximum. What is called kcat is the number of substrate molecules converted per active site and unit of time at saturation. In the case of `C[C@@H](O)[C@H]1C(=O)N2C(C(=O)O)=C(SCCNC=N)C[C@H]12`, in experiment [1], the Km was determined as 24 µM and the kcat came out at 22 s⁻¹. In experiment [2], the kcat/Km was 0.92.

As for `CC1(C)S[C@@H]2[C@H](NC(=O)[C@H](N)c3ccc(O)cc3)C(=O)N2[C@H]1C(=O)O`, in experiment [1], the Km was 110 µM and the catalytic constant (kcat) is 23 s⁻¹. In experiment [2], the kcat/Km came out at 0.21.

Turning to `CO[C@@]1(NC(=O)Cc2cccs2)C(=O)N2C(C(=O)O)=C(COC(N)=O)CS[C@@H]21`, in experiment [1], the Michaelis constant (Km) amounted to 7 µM and the kcat was determined as 7 s⁻¹. The kcat/Km in experiment [2] was 1.

For `CC1(C)S[C@@H]2[C@H](NC(=O)[C@H](C(=O)O)c3ccsc3)C(=O)N2[C@H]1C(=O)O`, in experiment [1], the Michaelis-Menten constant (Km) was 700 µM and the kcat is 252 s⁻¹. The kcat/Km in experiment [2] was found to be 0.36.

Regarding `CC(C)(O/N=C(\C(=O)N[C@@H]1C(=O)N2C(C(=O)[O-])=C(C[n+]3ccccc3)CS[C@H]12)c1csc(N)n1)C(=O)O`, in experiment [1], the Km came to 111 µM and the kcat was 21 s⁻¹. Also, the kcat/Km in experiment [2] came out at 0.19.

On to `C[C@@H](O)[C@H]1C(=O)N2C(C(=O)O)=C(S[C@@H]3CN[C@H](C(=O)N(C)C)C3)[C@H](C)[C@H]12`, for which, in experiment [1], the Michaelis constant (Km) was 0.3 µM and the kcat came out at 1 s⁻¹. Besides, in experiment [2], the kcat/Km was found to be 3.3.
